Measurements reported in ChEMBL document CHEMBL1201862, “PubChem BioAssay data set” (2004).
Calls of active or inactive are those of the source.

Columns and labels:
[1] = cells; format: functional
[2] = THP-1 cell cytotoxicity, dose response, cytotoxicity control for non-replicating M. tuberculosis project (AID 489025); format: functional
[3] = molecular target: T1, Leucine aminopeptidase (Plasmodium falciparum 3D7, UniProt Q8IL11); experiment: P. falciparum M17LAP inhibitors, primary screen, biochemical, fluorogenic H-Leu-NHMec substrate, 1536-well (AID 1619); format: functional
T1 sequence (Q8IL11 whole entry): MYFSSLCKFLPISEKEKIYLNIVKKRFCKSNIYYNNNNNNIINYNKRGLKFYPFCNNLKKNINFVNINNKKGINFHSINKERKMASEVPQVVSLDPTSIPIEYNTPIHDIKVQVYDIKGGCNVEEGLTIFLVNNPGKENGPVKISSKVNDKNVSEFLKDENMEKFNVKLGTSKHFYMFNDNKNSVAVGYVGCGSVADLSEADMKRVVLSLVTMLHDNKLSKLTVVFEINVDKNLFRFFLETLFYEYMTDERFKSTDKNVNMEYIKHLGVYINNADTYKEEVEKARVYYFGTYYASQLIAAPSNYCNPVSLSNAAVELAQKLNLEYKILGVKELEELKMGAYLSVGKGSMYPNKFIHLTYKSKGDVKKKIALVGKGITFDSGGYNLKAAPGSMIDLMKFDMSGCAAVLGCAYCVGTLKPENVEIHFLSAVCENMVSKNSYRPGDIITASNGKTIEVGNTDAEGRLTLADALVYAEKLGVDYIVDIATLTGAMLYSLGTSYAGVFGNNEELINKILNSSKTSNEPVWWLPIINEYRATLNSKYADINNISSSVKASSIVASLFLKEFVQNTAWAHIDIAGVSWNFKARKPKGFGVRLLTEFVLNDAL

[4] = Luminescence Cell-Based Dose Confirmation HTS to Identify Activators of 5'UTR Stem-Loop Driven Alpha-Synuclein mRNA Translation in H4 Neuroglioblastoma Cells. [Related pubchem assays: 1829 (Project Summary), 1814 (Primary HTS)]; format: functional
[5] = test system: H4; experiment: Luminescence Cell-Based Dose Response HTS to Identify Activators of 5'UTR Stem-Loop Driven Prion Protein mRNA Translation in H4 Neuroglioblastoma Cells. [Related pubchem assays: 1829 (Project Summary), 1814 (Primary HTS)]; format: functional; settings: Homo sapiens
[6] = Luminescence Cell-Based Dose Response HTS to Identify Activators of Luciferase Translation or Activity in H4 […] Cells. [Related pubchem assays: 1829 (Project Summary), 1814 (Primary HTS)]; format: functional
[7] = test system: BJ; experiment: cytotoxicity toward BJ-TERT-LT-ST fibroblasts, dose response, cell-based, RAS-independent, luminescence (AID 1935); format: functional; settings: Homo sapiens;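 note: BJ fibroblasts immortalized with TERT plus LT and ST oncogenes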
[8] = test system: BJ; experiment: cytotoxicity toward BJ-TERT fibroblasts, dose response, cell-based, RAS-independent, luminescence (AID 1933); format: functional; settings: Homo sapiens
[9] = test system: BJ; experiment: cells; format: functional, cell-based; settings: Homo sapiens
[10] = cytotoxicity toward DRD oncogenic fibroblasts, dose response, cell-based, non-viral oncogenic, luminescence (AID 1934); format: functional; settings: Homo sapiens
[11] = A549 cell cytotoxicity, dose response, cytotoxicity control, plate reader, cherry-pick, antagonist series (AID 743412); format: functional, cell-based
[12] = MC4R antagonists, dose response, counter-screen for LGR2 antagonist project, cell-based, plate reader, cherry pick (AID 743444); format: functional;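 note: transfected HEK 293 cells stimulated with alpha-MSH peptide; potency of inhibitors of the alpha-MSH evoked signal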
[13] = HepG2 cell cytotoxicity, dose response, cytotoxicity control, plate reader, cherry-pick, antagonist series (AID 743416); format: functional, cell-based
[14] = LGR2 antagonists, dose response, cell-based, HEK293, CRE-luciferase reporter, cherry pick, set 2 (AID 743343); format: functional;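 note: transfected cells were stimulated with diluted bursicon conditioned medium after compound addition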
[15] = intracellular Trypanosoma cruzi inhibitors in host cells – cell-based, plate reader, cherry-pick samples, set 3, dose response (AID 651818); format: functional;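 note: compounds incubated with infected cells for about four days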
[16] = HEK293 cell cytotoxicity, dose response, cytotoxicity control, plate reader, cherry-picked samples (AID 743446); format: functional, cell-based
[17] = molecular target: Large T antigen (Simian virus 40, UniProt P03070); format: functional, Betapolyomavirus macacae;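 note: Confirmatory-stage PubChem screen for compounds that inhibit SV40 T antigen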
Sequence of Large T antigen (P03070 whole entry, the tested form may be a part): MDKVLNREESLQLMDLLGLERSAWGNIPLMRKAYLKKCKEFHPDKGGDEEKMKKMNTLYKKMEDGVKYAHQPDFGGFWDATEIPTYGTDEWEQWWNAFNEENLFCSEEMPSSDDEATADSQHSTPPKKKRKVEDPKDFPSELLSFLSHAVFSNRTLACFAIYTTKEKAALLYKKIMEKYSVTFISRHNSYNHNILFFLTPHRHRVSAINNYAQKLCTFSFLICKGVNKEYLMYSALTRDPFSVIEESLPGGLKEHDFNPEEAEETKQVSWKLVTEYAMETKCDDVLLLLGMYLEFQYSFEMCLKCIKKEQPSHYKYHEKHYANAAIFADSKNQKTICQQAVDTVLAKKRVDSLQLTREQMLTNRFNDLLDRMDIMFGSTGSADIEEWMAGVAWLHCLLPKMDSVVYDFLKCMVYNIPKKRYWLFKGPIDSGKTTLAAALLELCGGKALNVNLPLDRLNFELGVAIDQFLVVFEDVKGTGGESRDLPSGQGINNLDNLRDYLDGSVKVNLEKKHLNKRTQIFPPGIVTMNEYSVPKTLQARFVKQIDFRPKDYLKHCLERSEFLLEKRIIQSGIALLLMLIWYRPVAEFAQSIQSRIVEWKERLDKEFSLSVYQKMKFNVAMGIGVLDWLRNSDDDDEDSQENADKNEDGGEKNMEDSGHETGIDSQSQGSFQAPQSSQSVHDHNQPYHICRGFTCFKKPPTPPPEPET

[18] = ZM109 Env clade C HIV-1 fusion inhibitors, dose response, HeLa effector, CEM target cells, luciferase, cherry-pick (AID 652058); format: functional, cell-based
[19] = inhibitors of clade B AD8 Env fusion, dose response, cell-based, cherry-pick (AID 652062); format: functional;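 note: luciferase signal from cell-cell fusion driven by HIV-1 clade B AD8 Env; potency is for inhibitors of fusion seen as a drop in luminescence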
[20] = inhibitors of HIV Env-driven cell fusion, dose response, cherry-pick (AID 652057); format: functional, cell-based
[21] = molecular target: T2, Cytochrome P450 3A4 (Homo sapiens, UniProt P08684); settings: Potency
T2 sequence (P08684 whole entry): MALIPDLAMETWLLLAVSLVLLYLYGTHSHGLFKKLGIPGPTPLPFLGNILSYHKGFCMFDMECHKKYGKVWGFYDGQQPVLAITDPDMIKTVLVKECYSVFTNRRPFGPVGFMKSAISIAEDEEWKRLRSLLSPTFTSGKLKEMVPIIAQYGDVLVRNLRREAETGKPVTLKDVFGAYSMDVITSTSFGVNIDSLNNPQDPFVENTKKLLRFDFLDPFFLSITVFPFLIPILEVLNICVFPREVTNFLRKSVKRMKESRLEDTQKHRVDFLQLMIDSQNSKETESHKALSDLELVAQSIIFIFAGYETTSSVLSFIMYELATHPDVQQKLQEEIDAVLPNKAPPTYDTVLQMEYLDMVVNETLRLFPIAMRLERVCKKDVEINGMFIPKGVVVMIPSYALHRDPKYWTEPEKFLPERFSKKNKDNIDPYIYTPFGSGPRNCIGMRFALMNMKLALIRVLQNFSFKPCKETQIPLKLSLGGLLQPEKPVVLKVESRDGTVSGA

[22] = molecular target: T3, Rac GTPase-activating protein 1 (Homo sapiens, UniProt Q9H0H5); experiment: MgcRacGAP GTPase-activating activity inhibitors, confirmation, biochemical, ADP Hunter fluorescence, primary and confirmatory (AID 624330); format: functional
T3 sequence (Q9H0H5 whole entry): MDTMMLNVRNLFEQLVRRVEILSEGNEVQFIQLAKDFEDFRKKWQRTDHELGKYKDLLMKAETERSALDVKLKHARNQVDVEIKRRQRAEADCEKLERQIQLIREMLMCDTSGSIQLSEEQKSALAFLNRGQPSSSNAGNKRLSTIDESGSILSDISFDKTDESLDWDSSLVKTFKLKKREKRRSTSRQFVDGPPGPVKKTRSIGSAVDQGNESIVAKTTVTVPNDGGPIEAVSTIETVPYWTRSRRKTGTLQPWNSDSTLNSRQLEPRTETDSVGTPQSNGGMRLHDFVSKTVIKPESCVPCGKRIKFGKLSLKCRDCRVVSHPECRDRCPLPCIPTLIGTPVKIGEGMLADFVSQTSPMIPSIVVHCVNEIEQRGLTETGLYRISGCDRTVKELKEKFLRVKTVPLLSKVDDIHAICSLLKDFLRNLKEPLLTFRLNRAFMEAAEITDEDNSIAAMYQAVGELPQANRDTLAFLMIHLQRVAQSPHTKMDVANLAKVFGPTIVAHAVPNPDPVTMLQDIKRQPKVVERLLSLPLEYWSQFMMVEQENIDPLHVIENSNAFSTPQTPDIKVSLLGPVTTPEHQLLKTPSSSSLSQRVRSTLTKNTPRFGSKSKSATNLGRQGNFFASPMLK

[23] = molecular target: T2, Cytochrome P450 3A4
[24] = molecular target: Cytochrome P450 2C19 (Homo sapiens, UniProt P33261); experiment: Cytochrome panel assay with activity outcomes. Panel member name: p450-cyp2c19 Compounds with AC50 equal or less than 10 uM are considered active; format: functional; settings: read-out: AC50
Sequence of Cytochrome P450 2C19 (P33261 whole entry): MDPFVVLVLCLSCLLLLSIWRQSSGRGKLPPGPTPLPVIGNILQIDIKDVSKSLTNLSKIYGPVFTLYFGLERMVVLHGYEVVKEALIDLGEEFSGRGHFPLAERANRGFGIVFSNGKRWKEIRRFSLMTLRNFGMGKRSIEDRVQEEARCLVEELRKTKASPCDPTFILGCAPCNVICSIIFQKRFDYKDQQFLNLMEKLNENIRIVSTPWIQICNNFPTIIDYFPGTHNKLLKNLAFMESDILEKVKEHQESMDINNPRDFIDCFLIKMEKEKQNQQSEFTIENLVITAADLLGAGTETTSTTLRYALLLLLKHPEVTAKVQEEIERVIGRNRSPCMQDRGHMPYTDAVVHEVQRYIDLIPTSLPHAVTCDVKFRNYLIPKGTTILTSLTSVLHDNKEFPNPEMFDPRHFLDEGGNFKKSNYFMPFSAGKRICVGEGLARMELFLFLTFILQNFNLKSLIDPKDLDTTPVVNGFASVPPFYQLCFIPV

[25] = molecular target: Cytochrome P450 2C9 (Homo sapiens, UniProt P11712)
Sequence of Cytochrome P450 2C9 (P11712 whole entry): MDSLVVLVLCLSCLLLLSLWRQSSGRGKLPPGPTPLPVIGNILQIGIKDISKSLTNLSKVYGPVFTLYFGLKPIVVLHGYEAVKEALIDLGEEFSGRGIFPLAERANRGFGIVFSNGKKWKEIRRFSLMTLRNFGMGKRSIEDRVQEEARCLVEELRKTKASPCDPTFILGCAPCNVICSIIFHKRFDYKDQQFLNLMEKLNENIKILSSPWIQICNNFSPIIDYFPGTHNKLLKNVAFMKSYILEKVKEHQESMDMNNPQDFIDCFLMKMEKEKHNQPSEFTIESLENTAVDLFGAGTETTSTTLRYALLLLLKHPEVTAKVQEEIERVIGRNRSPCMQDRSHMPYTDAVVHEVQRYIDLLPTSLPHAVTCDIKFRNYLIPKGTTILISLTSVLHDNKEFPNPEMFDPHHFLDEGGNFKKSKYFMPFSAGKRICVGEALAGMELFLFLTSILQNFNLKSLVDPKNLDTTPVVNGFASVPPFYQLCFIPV

[26] = P. falciparum ATP4 D1247Y mutant growth inhibitors, dose response, NITD609-resistant line, SYBR Green, dry powder (AID 1159571); format: functional, cell-based;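 note: parasites synchronized at ring stage by sorbitol before testing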
[27] = P. falciparum 3D7-ScDHODH growth inhibitors, dose response, SYBR Green, dry powder samples (AID 1159570); format: functional, cell-based;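 note: parasite growth measured after 72 hours of compound exposure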
[28] = P. falciparum Dd2 growth inhibitors, dose response, SYBR Green, cherry-picked samples (AID 1159567); format: functional, cell-based
[29] = P. falciparum Dd2 growth inhibitors, dose response, SYBR Green, dry powder samples (AID 1159566); format: functional, cell-based;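 note: potency for growth inhibition with lower SYBR green DNA signal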

Nc1nc2ccccc2n1C(=O)c1ccc(F)cc1
IC50 [1]: 9.58 µM (active) | CC50 [2]: > 40 µM (active)

CCOC(=O)c1ccc(NC(=O)CN2C(=O)CSCC2=O)cc1
IC50 [3]: 41.8 µM (active)

Cn1c(-c2ccc3ccccc3n2)[n+](C)c2ccccc21
EC50 [4]: > 120 µM (not active) | EC50 [5]: 40 µM (active) | EC50 [6]: 12.7 µM (active)

Cc1ccc2cc(CN(Cc3ccco3)C(=O)c3cccs3)c(O)nc2c1
EC50 [7]: 5.07 µM (active) | EC50 [8]: 13 µM (active) | EC50 [9]: 74.4 µM (active) | EC50 [10]: 4.87 µM (active)

COc1ccc(-c2cc3nc(NCC4CCCCC4)n(C)c(=O)c3s2)cc1OC
AC50 [11]: 45.8 µM (active) | AC50 [12]: 2.51 µM (active) | AC50 [13]: > 52 µM (inactive) | AC50 [14]: 12.8 µM (active)

C[C@H](CO)N1C[C@H](C)[C@@H](CN(C)Cc2ccc3c(c2)OCO3)Oc2c(NC(=O)Nc3ccc(C(F)(F)F)cc3)cccc2C1=O
AC50 [15]: 2.74 µM (active) | AC50 [11]: 25.6 µM (active) | AC50 [12]: 11.9 µM (active) | AC50 [13]: 21.2 µM (active) | AC50 [14]: 19.6 µM (active) | AC50 [16]: 17.3 µM (active)

C[C@H]1CN([C@@H](C)CO)C(=O)c2cccc(NC(=O)CCCCCC(=O)Nc3ccccc3N)c2O[C@@H]1CN(C)Cc1ccc2c(c1)OCO2
AC50 [15]: 1.72 µM (active)

Cc1cccc(C(=O)Nc2ccc(O)cc2)c1
IC50 [17]: 10.7 µM (active)

CC(C)CC#Cc1ccc2c(c1)O[C@@H](CN(C)S(=O)(=O)c1cccc(F)c1)[C@@H](C)CN([C@H](C)CO)S2(=O)=O
AC50 [18]: 0.919 µM (active) | AC50 [19]: 26.5 µM (active) | AC50 [20]: 5.91 µM (active)

COc1ccc(NC(=O)Nc2ccc3c(c2)C(=O)N([C@@H](C)CO)C[C@H](C)[C@H](CN(C)S(=O)(=O)c2ccc(OC)cc2)O3)cc1
AC50 [18]: 4.38 µM (active) | AC50 [19]: 17.5 µM (active) | AC50 [20]: 4.26 µM (active)

CCN1C[C@@]2(COC(=O)c3ccccc3N3C(=O)CC(C)C3=O)CC[C@H](OC)[C@]34C5C[C@H]6[C@@H](OC)C[C@@](O)(C5[C@H]6OC)C(O)(C13)[C@@H](OC)C24 (stereo partly drawn)
AC50 [21]: 20 µM (inconclusive)

COc1ccccc1CCn1cnc(-c2ccccc2F)c1CC(C)C
AC50 [11]: 27 µM (active) | AC50 [12]: 18.9 µM (active) | AC50 [13]: 27.2 µM (active) | AC50 [14]: 17.5 µM (active) | AC50 [16]: > 52 µM (inactive)

OC(c1ccccc1)(c1ccccc1)C1CCN(CCCOc2cccc(C(F)(F)F)c2)CC1
AC50 [11]: 9.53 µM (active) | AC50 [12]: 19.6 µM (active) | AC50 [13]: 10.9 µM (active) | AC50 [14]: 21.7 µM (active) | AC50 [16]: 16.9 µM (active)

C/N=c1\scc(C)n1/N=C/c1cc(Br)c(O)c(OC)c1
IC50 [22]: 14.4 µM (active) | IC50 [17]: 5.8 µM (active)

CC12CCC(C(=O)Nc3ccccc3Br)(C/C1=N\O)C2(C)C (stereo not drawn)
AC50 [23]: 20 µM (inconclusive) | AC50 [24]: 31.6 µM (inconclusive) | AC50 [25]: inconclusive

C[C@H]1CN([C@@H](C)CO)C(=O)c2c(c3ccccc3n2C)-c2ccccc2CO[C@@H]1CN(C)C(=O)Nc1cccc(C(F)(F)F)c1
AC50 [26]: 0.376 µM (active) | AC50 [27]: 0.871 µM (active) | AC50 [28]: 1.13 µM (active) | AC50 [29]: 0.442 µM (active)
